Laboratory results from US20240382497A1, “PROPHYLACTIC OR THERAPEUTIC AGENT FOR HYPOXIC INJURY, ISCHAEMIA-REPERFUSION INJURY AND INFLAMMATION, CELL PROTECTION AGENT FOR TRANSPLANTATION, AND BIO-PRESERVATION AGENT” (priority 2018, published 2024).

Tests used:
Male C57/BL6N mice = assay: Skin blood flow on odor presentation (laser Doppler); format: in vivo, mouse; details: filter paper scented with 271 μmol odor, 20 min, versus no odor
Experimental: An influence of a thiazoline-related compound and an odor molecule that induces learned fear on the skin blood flow was analyzed. Male C57/BL6N mice (about 3 months old) were anesthetized with pentobarbital (50 mg/kg, i.p.) about 5 days before the test, and the back hair was depilated with depilatory cream. A mouse restrainer having an observation window was prepared using a 50 ml tube, the mice were trained to enter the restrainer from the day after hair removal, and acclimated by performing this operation until the day before the test. On the day of testing, each mouse was placed in a restrainer, and a laser Doppler probe was attached to the shaved back of the mouse with an adhesive tape. After confirming that the blood flow signal became stable, (1) no odor was presented for 10 min, (2) Eugenol odor was presented for 10 min, (3) thiazoline-related compound (2MT) or an odor that induces learned fear (Anis-FS+) was presented for 20 min, and changes in the blood flow were measured. […] The blood flow rate was measured every 10 seconds using a laser Doppler blood flow meter (ADVANCE CO., LTD. ALF21D). The mean skin blood flow without odor (10 min) or with the presentation of a thiazoline-related compound or an odor that induces learned fear (20 min) was calculated, and the mean skin blood flow was shown as a relative value with the mean skin blood flow without odor as 100%.

C57/BL6N male mice [1] = assay: Oxygen consumption on odor presentation; format: in vivo, mouse; details: filter paper scented with 100 μl (104 mmol) odor, versus saline
Experimental: An influence of a thiazoline-related compound on the oxygen consumption was analyzed. The oxygen consumption was analyzed using an energy metabolism measurement device for small animals (ARCO-2000; ARCO SYSTEM). About 3-month-old C57/BL6N male mice were each placed in a measuring chamber and, after acclimation for about 2 hr, a thiazoline-related compound (2MT) was presented. The odors were presented by placing filter papers scented with 100 μl (104 mmol) of odor molecules in the measuring chamber. As a control, an experiment in which a filter paper dropped with saline was presented to the mice was also performed. The oxygen consumption was measured every one min. Mean oxygen consumption was calculated as the mean of 10 min before presenting odor and 20 min after presenting odor.

C57/BL6N male mice [2] = assay: Core body temperature under the odor conditions of Example 9; format: in vivo, mouse; details: odor presentation conditions of Example 9
Experimental: An influence of a thiazoline-related compound and an odor molecule that induces learned fear on the core body temperature was analyzed. A radio-telemetry device for monitoring biological parameters (manufactured by Physiotel) was surgically implanted in the abdomen of male C57/BL6N mice (about 3 months old). The mice were subjected to the following experiment after about 10 days of recovery period. […] The information of body temperature was recorded every 10 sec using Dataquest A.R.T. software (DataScience international). The value of the core body temperature change was calculated as the difference between the mean core body temperature for 10 min when water was presented and the mean core body temperature for 20 min when each odor molecule was presented, and the change in the core body temperature without odor was set to 0. […]
About 3-month-old C57/BL6N male mice were each placed in a highly sealed breeding cage, and a filter paper scented with 100 μl (104 mmol) of the thiazoline-related compound (2MT) was placed in the breeding cage, and the odor was presented for 50 min. After the odor was presented, the mice were placed in a tight box in which the oxygen concentration was adjusted to 4%, and the survival time of the mice was measured up to 30 min at maximum. As a control, the survival time of mice presented with a filter paper dropped with water was also measured (no odor). […]

[3] = system: Trpa1 knockout and littermate hetero mice; assay: Survival time in 4% oxygen of Trpa1 knockout mouse after odor presentation; format: in vivo; details: 271 μmol odor presented 10 min, versus saline
Experimental: The thiazoline-related compound (2MT) was presented for 10 min to about 3-month-old male Trpa1 knockout and littermate hetero mice. Thereafter, the mice were placed in a tight box in which the oxygen concentration was adjusted to 4%, and the survival time of the mice was measured up to 30 min at maximum. The odor was presented by placing a filter paper scented with 271 μmol of 2MT in the breeding cage. As a control, an experiment presenting a filter paper dropped with saline was also performed (no odor).

Interleukin-10 (IL-10) = assay: Blood IL-10 in LPS sepsis model (ELISA); format: in vivo, mouse; details: about 80 mg/kg i.p., 1 hr and 4 hr, versus saline
Experimental: (§1) Lipopolysaccharide (LPS) (0.6 mg/kg) was intraperitoneally administered to male Balb/c mice (about 2-3 months old) to generate a sepsis model. Immediately after the LPS administration, 200 μl (about 80 mg/kg) of a solution prepared by diluting various heterocyclic compounds and isothiocyanate compounds 100 times with saline was intraperitoneally administered. Blood samples were collected 60 min after LPS and compound administration, EDTA plasma was prepared, and the blood level of inflammatory cytokine TNF-a was measured by the ELISA method.
A sepsis model mouse was prepared by the same method as in Example 18. Immediately after the LPS administration, 200 μl (about 80 mg/kg) of a thiazoline-related compound (2MT) solution prepared by diluting 100 times with saline was intraperitoneally administered. Blood samples were collected 1 hr and 4 hr after administration of LPS and thiazoline-related compound (2MT), EDTA plasma was prepared, and the blood levels of inflammatory cytokine Interleukin-1β (IL-1β), and anti-inflammatory cytokine Interleukin-10 (IL-10) were measured by the ELISA method.

sepsis model mouse = assay: Survival time in LPS sepsis model; format: in vivo; details: about 80 mg/kg i.p., versus saline
Experimental: as §1
A sepsis model mouse was prepared by the same method as in Example 18. Immediately after the LPS administration, 200 μl (about 80 mg/kg) of a thiazoline-related compound (2MT) solution prepared by diluting 100 times with saline was intraperitoneally administered. The survival time of the mouse was measured when the thiazoline-related compound (2MT) was administered and when saline, as a control, was administered (saline).

CC1=NCCS1 [2MT, 2-methyl-2-thiazoline]
skin blood flow (Male C57/BL6N mice): decreased the skin blood flow
oxygen consumption per body weight (C57/BL6N male mice [1]): decreased remarkably
core body temperature (C57/BL6N male mice [2]): remarkable decrease in the core body temperature
survival time in 4% oxygen [3]: did not increase significantly
blood concentration of IL-10 (Interleukin-10 (IL-10)): increased the blood concentration of anti-inflammatory cytokine IL-10
survival time in sepsis model (sepsis model mouse): extending the survival time
